{"source": "paper PMC4979471", "about": "(Cell Death Discovery, 2015)", "assay_in_all_cases": "Kinase selectivity, P33-radiolabeled assay", "type_in_all_cases": "biochemical", "conditions_in_all_cases": "10 μM ATP", "key": {"MLCK2/MYLK2": {"molecular_target": "T1, MLCK2/MYLK2 (Homo sapiens, UniProt Q9H1R3)", "T1 construct": "purchased Reaction Biology Corp", "summary_of_the_method": "(§1)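 Each enzyme was exposed to 10 μM compound, with duplicate measurements, in reactions containing 10 μM ATP. Numbers are remaining activity as a percent of the vehicle (DMSO) signal.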"}, "WEE1": {"molecular_target": "T2, WEE1 (Homo sapiens, UniProt P30291)", "T2 construct": "purchased Reaction Biology Corp", "T2 sequence (P30291 whole entry)": "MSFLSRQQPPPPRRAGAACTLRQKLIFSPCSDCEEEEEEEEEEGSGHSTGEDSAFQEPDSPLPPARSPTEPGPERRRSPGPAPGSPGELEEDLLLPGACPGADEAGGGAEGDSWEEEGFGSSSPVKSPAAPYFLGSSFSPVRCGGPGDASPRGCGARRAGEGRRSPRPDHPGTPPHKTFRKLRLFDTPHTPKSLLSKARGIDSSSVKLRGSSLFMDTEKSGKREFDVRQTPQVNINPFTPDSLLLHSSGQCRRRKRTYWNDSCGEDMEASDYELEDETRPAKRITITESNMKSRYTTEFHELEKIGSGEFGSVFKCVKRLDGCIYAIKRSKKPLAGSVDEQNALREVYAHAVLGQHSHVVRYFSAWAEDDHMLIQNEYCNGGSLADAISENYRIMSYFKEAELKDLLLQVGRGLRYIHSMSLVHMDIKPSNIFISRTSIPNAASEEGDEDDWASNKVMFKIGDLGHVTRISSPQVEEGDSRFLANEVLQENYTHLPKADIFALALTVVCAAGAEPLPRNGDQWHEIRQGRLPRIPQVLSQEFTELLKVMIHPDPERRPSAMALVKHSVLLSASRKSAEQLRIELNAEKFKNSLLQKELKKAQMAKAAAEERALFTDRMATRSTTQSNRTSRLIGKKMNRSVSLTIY", "summary_of_the_method": "as §1"}, "ABL1": {"molecular_target": "T3, ABL1 (Homo sapiens, UniProt P00519)", "T3 construct": "purchased Reaction Biology Corp", "summary_of_the_method": "as §1"}, "ZIPK/DAPK3": {"molecular_target": "T4, ZIPK/DAPK3 (Homo sapiens, UniProt O43293)", "T4 construct": "purchased Reaction Biology Corp", "T4 sequence (O43293 whole entry)": "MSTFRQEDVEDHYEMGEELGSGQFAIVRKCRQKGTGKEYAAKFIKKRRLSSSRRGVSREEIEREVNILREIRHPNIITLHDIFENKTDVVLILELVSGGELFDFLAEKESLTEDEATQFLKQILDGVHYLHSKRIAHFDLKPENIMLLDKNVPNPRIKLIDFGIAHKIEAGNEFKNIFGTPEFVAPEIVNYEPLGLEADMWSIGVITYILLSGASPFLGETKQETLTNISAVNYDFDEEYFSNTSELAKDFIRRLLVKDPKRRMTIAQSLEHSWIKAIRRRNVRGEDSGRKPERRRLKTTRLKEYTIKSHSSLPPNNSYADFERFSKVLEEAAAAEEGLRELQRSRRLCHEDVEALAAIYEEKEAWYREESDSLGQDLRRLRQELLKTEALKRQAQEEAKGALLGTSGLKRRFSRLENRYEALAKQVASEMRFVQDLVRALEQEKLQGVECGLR", "summary_of_the_method": "as §1"}, "TLK2": {"molecular_target": "T5, TLK2 (Homo sapiens, UniProt Q86UE8)", "T5 construct": "purchased Reaction Biology Corp", "summary_of_the_method": "as §1"}, "FGFR2": {"molecular_target": "T6, FGFR2 (Homo sapiens, UniProt P21802)", "T6 construct": "purchased Reaction Biology Corp", "T6 sequence (P21802 22-821)": "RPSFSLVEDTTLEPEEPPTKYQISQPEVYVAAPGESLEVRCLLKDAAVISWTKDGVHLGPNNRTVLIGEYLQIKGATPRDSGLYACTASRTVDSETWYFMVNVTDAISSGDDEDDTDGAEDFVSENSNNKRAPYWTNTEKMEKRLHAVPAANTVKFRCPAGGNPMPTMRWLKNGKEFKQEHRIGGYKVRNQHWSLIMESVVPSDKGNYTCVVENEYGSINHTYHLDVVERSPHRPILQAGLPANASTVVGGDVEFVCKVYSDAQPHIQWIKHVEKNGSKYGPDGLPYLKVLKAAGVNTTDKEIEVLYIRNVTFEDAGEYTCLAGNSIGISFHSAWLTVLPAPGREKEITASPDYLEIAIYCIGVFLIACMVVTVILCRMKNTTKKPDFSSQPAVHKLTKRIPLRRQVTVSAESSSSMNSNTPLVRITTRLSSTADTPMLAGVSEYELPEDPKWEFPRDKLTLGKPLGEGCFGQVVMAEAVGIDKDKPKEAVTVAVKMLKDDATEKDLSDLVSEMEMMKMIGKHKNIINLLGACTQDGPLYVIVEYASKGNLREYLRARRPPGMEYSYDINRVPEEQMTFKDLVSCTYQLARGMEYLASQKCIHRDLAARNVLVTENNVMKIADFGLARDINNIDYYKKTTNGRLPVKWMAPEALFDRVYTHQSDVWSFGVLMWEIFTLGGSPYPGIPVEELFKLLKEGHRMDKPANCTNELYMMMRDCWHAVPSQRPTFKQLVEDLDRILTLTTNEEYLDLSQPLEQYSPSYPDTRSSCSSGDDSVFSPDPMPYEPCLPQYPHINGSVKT", "summary_of_the_method": "as §1"}, "EGFR": {"molecular_target": "T7, EGFR (Homo sapiens, UniProt P00533)", "T7 construct": "purchased Reaction Biology Corp", "T7 sequence (P00533 25-1210)": "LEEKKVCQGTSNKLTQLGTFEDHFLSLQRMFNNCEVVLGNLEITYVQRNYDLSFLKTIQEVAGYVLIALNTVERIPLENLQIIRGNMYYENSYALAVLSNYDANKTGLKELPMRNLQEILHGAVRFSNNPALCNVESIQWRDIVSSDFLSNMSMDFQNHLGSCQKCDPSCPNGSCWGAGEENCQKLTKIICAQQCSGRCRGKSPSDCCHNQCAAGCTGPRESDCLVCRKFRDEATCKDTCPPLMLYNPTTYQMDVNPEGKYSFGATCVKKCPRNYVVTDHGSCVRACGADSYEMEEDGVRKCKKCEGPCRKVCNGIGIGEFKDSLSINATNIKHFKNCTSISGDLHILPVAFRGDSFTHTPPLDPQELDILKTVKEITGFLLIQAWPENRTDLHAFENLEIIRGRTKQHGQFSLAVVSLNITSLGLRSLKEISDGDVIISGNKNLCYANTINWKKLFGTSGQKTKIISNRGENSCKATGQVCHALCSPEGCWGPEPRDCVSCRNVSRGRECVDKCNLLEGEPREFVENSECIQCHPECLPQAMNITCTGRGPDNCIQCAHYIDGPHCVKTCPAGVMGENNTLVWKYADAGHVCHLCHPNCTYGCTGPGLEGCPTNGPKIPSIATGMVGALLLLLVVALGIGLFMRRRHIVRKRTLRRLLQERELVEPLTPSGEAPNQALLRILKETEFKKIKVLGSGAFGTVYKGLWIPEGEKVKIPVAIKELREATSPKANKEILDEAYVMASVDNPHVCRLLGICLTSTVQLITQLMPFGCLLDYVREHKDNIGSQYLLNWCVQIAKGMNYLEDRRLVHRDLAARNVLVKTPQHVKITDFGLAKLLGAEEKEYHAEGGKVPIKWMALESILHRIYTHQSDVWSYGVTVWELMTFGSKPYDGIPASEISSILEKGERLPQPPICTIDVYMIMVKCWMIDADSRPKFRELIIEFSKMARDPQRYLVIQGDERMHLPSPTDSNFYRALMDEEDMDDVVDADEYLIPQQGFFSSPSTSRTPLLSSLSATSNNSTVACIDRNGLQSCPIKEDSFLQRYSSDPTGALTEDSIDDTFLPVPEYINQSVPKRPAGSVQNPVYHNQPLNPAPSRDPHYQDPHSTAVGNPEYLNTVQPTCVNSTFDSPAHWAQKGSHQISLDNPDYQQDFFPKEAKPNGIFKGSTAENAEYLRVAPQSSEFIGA", "summary_of_the_method": "as §1"}, "CSK": {"molecular_target": "T8, CSK (Homo sapiens, UniProt P41240)", "T8 construct": "purchased Reaction Biology Corp", "T8 sequence (P41240 whole entry)": "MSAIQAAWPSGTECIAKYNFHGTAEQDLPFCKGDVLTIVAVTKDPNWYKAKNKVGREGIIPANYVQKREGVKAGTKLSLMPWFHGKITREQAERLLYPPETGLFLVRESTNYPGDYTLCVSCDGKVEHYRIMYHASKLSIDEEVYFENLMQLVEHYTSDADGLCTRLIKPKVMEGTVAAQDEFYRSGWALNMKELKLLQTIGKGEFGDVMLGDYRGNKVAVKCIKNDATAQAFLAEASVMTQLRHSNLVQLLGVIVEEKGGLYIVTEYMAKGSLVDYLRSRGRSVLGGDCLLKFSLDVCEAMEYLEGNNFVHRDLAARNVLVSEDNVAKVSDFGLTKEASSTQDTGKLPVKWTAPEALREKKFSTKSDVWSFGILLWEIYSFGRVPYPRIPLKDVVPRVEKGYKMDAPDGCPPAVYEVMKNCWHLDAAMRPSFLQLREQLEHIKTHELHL", "summary_of_the_method": "as §1"}, "DCAMKL2": {"molecular_target": "T9, DCAMKL2 (Homo sapiens, UniProt Q8N568)", "T9 construct": "purchased Reaction Biology Corp", "T9 sequence (Q8N568 1-766)": "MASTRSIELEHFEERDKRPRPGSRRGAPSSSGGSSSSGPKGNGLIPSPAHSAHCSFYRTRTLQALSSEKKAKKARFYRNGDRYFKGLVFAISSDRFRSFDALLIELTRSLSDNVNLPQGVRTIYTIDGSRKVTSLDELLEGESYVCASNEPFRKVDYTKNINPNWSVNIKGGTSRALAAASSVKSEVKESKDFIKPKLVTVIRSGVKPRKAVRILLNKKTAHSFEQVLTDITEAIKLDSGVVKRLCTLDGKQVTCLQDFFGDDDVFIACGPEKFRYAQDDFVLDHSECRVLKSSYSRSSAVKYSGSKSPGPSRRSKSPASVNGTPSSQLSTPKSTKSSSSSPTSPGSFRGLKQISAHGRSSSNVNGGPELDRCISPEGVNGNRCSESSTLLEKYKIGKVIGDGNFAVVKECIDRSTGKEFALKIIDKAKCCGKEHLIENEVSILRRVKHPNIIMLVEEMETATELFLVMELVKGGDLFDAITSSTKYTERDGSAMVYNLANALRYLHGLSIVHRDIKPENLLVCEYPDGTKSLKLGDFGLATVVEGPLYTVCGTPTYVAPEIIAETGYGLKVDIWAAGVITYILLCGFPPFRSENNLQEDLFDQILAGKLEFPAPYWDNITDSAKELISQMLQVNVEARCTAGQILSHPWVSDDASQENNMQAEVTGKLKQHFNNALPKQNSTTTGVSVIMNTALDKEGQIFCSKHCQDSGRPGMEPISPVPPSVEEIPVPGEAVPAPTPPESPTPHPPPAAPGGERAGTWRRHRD", "summary_of_the_method": "as §1"}, "ULK1": {"molecular_target": "T10, ULK1 (Homo sapiens, UniProt O75385)", "T10 construct": "purchased Reaction Biology Corp", "T10 sequence (O75385 1-1050)": "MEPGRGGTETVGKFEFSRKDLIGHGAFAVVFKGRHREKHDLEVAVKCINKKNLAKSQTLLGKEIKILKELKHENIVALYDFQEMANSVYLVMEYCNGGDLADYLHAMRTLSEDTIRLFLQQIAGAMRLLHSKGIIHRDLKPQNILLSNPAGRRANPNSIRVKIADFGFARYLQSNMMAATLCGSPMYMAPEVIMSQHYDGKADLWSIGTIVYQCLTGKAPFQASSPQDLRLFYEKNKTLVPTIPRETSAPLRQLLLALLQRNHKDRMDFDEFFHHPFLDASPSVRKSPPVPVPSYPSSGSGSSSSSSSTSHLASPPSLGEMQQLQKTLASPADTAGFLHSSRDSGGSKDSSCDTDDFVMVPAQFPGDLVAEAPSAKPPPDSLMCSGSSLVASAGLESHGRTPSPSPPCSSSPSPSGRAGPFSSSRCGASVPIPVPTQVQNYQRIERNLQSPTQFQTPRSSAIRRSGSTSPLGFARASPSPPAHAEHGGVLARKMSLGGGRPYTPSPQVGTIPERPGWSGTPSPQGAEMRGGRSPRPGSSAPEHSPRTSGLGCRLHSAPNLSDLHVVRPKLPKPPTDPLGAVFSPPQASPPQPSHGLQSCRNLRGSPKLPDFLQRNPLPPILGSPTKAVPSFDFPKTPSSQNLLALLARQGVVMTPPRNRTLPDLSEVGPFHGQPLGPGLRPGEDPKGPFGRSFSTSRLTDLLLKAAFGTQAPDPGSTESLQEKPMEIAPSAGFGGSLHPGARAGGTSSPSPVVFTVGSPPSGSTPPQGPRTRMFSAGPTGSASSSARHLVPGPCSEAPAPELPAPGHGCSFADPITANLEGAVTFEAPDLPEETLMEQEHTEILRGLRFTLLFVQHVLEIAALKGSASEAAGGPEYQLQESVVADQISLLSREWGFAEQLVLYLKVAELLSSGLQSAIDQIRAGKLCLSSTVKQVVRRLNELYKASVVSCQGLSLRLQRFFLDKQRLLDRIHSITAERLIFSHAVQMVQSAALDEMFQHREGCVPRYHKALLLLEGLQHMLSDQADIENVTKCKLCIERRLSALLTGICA", "summary_of_the_method": "as §1"}, "LYN": {"molecular_target": "T11, LYN (Homo sapiens, UniProt P07948)", "T11 construct": "purchased Reaction Biology Corp", "summary_of_the_method": "as §1"}, "HIPK1": {"molecular_target": "T12, HIPK1 (Homo sapiens, UniProt Q86Z02)", "T12 construct": "purchased Reaction Biology Corp", "T12 sequence (Q86Z02 whole entry)": "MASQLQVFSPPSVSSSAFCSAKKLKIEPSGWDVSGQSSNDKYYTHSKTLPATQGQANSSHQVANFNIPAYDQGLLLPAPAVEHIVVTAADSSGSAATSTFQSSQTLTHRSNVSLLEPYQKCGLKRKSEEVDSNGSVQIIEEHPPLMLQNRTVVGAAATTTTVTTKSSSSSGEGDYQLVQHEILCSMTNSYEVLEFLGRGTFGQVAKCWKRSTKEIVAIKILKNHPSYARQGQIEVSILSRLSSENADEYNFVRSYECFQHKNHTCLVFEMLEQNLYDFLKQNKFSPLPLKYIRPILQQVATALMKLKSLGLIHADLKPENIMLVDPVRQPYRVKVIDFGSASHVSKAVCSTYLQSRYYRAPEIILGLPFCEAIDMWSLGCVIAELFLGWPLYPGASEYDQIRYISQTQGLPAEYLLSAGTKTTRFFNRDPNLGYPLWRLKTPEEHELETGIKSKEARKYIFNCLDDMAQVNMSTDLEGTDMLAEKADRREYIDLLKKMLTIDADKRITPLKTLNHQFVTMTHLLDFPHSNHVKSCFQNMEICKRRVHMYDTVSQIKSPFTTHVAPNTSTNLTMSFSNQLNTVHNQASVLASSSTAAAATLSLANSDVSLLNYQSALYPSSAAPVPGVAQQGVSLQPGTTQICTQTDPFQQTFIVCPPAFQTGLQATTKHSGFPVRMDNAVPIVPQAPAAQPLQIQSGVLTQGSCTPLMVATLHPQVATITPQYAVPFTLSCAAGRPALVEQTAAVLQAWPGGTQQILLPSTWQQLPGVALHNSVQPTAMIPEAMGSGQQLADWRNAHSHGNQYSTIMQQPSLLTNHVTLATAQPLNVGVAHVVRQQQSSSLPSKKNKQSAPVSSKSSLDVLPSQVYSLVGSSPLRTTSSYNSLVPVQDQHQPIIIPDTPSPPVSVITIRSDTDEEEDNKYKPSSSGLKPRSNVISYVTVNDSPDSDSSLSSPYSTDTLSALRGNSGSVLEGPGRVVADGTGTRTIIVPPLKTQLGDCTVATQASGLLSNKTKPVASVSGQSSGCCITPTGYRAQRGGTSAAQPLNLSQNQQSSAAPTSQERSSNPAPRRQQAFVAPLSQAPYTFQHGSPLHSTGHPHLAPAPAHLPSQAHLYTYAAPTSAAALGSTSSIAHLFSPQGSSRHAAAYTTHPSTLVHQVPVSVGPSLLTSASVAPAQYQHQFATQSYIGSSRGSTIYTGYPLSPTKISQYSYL", "summary_of_the_method": "as §1"}, "[1]": {"conditions": "read-out: % Enzyme Activity (relative to DMSO controls) AVG"}, "[2]": {"conditions": "read-out: % Enzyme Activity (relative to DMSO controls) Data 1"}, "[3]": {"conditions": "read-out: % Enzyme Activity (relative to DMSO controls) Data 2"}}, "note": "Where two headings read alike, the source gives them in different places."}
{"smiles": "CC(C)(C)C(=O)N1N=CC[C@H]1c1ccccc1", "note": "[GSK′963]", "values": [{"measurement": "remaining activity at 10 µM", "setting": "MLCK2/MYLK2; [1]", "result": 104, "unit": "%"}, {"measurement": "remaining activity at 10 µM", "setting": "MLCK2/MYLK2; [2]", "result": 106, "unit": "%"}, {"measurement": "remaining activity at 10 µM", "setting": "MLCK2/MYLK2; [3]", "result": 102, "unit": "%"}, {"measurement": "remaining activity at 10 µM", "setting": "WEE1; [1]", "result": 85.6, "unit": "%"}, {"measurement": "remaining activity at 10 µM", "setting": "WEE1; [2]", "result": 81.9, "unit": "%"}, {"measurement": "remaining activity at 10 µM", "setting": "WEE1; [3]", "result": 89.2, "unit": "%"}, {"measurement": "remaining activity at 10 µM", "setting": "ABL1; [1]", "result": 99.3, "unit": "%"}, {"measurement": "remaining activity at 10 µM", "setting": "ABL1; [2]", "result": 102, "unit": "%"}, {"measurement": "remaining activity at 10 µM", "setting": "ABL1; [3]", "result": 96.9, "unit": "%"}, {"measurement": "remaining activity at 10 µM", "setting": "ZIPK/DAPK3; [1]", "result": 111, "unit": "%"}, {"measurement": "remaining activity at 10 µM", "setting": "ZIPK/DAPK3; [2]", "result": 118, "unit": "%"}, {"measurement": "remaining activity at 10 µM", "setting": "ZIPK/DAPK3; [3]", "result": 104, "unit": "%"}, {"measurement": "remaining activity at 10 µM", "setting": "TLK2; [1]", "result": 93.2, "unit": "%"}, {"measurement": "remaining activity at 10 µM", "setting": "TLK2; [2]", "result": 92.9, "unit": "%"}, {"measurement": "remaining activity at 10 µM", "setting": "TLK2; [3]", "result": 93.5, "unit": "%"}, {"measurement": "remaining activity at 10 µM", "setting": "FGFR2; [1]", "result": 110, "unit": "%"}, {"measurement": "remaining activity at 10 µM", "setting": "FGFR2; [2]", "result": 108, "unit": "%"}, {"measurement": "remaining activity at 10 µM", "setting": "FGFR2; [3]", "result": 112, "unit": "%"}, {"measurement": "remaining activity at 10 µM", "setting": "EGFR; [1]", "result": 106, "unit": "%"}, {"measurement": "remaining activity at 10 µM", "setting": "EGFR; [2]", "result": 105, "unit": "%"}, {"measurement": "remaining activity at 10 µM", "setting": "EGFR; [3]", "result": 108, "unit": "%"}, {"measurement": "remaining activity at 10 µM", "setting": "CSK; [1]", "result": 104, "unit": "%"}, {"measurement": "remaining activity at 10 µM", "setting": "CSK; [2]", "result": 104, "unit": "%"}, {"measurement": "remaining activity at 10 µM", "setting": "CSK; [3]", "result": 103, "unit": "%"}, {"measurement": "remaining activity at 10 µM", "setting": "DCAMKL2; [1]", "result": 101, "unit": "%"}, {"measurement": "remaining activity at 10 µM", "setting": "DCAMKL2; [2]", "result": 100, "unit": "%"}, {"measurement": "remaining activity at 10 µM", "setting": "DCAMKL2; [3]", "result": 102, "unit": "%"}, {"measurement": "remaining activity at 10 µM", "setting": "ULK1; [1]", "result": 106, "unit": "%"}, {"measurement": "remaining activity at 10 µM", "setting": "ULK1; [2]", "result": 106, "unit": "%"}, {"measurement": "remaining activity at 10 µM", "setting": "ULK1; [3]", "result": 106, "unit": "%"}, {"measurement": "remaining activity at 10 µM", "setting": "LYN; [1]", "result": 107, "unit": "%"}, {"measurement": "remaining activity at 10 µM", "setting": "LYN; [2]", "result": 109, "unit": "%"}, {"measurement": "remaining activity at 10 µM", "setting": "LYN; [3]", "result": 105, "unit": "%"}, {"measurement": "remaining activity at 10 µM", "setting": "HIPK1; [1]", "result": 94.3, "unit": "%"}, {"measurement": "remaining activity at 10 µM", "setting": "HIPK1; [2]", "result": 95.2, "unit": "%"}, {"measurement": "remaining activity at 10 µM", "setting": "HIPK1; [3]", "result": 93.3, "unit": "%"}]}
